# According to patent US4455290A, “Inhibition of fibrin polymerization by a peptide isolated from fibrin Fragment D1” (Research Corporation, priority 1981, dated 1984):
# Peptide text beside a SMILES is read from it.
# Assays:
# thrombin fibrin monomer [1] = target: T1, thrombin fibrin monomer (Homo sapiens, UniProt P02671+P02675+P02679); test: Sephadex gel equilibrium binding, thrombin fibrin monomer; details: 15 experiments, mean and standard deviation
# T1 construct: Thrombin cleaves the bonds Aα16 Arg-17 Gly and Bβ14 Arg-15 Gly, releasing two molecules of fibrinopeptide A and two molecules of fibrinopeptide B; made in house; host or cells: not recombinant: made from fibrinogen by treatment with thrombin
# T1 sequence (P02671 36-629 isoform P02671-2): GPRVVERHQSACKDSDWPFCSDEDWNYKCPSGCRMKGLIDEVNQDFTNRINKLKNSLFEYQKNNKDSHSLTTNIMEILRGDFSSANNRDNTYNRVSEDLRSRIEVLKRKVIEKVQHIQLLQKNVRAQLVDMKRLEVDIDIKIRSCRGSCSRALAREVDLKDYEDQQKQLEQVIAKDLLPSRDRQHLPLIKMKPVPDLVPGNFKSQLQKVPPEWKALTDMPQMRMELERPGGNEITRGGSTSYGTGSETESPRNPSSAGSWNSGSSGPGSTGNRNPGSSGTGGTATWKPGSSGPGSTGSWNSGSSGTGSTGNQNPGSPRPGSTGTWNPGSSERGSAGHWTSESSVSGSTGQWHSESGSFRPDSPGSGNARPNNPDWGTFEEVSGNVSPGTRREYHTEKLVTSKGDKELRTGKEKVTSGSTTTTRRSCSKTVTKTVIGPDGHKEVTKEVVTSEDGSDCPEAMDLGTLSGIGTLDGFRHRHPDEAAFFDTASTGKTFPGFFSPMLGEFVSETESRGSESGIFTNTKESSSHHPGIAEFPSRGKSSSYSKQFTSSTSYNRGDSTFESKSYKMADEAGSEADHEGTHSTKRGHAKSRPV
# T1 sequence (P02675 45-491): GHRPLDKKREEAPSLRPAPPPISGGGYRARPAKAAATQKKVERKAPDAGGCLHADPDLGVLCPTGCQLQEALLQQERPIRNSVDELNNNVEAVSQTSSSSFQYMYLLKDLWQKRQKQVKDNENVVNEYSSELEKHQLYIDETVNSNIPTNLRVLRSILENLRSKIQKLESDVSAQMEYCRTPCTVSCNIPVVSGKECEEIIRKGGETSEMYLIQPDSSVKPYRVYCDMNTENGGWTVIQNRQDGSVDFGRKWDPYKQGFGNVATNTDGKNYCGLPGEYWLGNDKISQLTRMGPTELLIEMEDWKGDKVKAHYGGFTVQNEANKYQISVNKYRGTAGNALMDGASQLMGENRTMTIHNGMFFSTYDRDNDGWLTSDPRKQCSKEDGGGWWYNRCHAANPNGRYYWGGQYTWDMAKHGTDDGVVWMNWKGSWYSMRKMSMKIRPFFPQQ
# T1 sequence (P02679 27-437 isoform P02679-2): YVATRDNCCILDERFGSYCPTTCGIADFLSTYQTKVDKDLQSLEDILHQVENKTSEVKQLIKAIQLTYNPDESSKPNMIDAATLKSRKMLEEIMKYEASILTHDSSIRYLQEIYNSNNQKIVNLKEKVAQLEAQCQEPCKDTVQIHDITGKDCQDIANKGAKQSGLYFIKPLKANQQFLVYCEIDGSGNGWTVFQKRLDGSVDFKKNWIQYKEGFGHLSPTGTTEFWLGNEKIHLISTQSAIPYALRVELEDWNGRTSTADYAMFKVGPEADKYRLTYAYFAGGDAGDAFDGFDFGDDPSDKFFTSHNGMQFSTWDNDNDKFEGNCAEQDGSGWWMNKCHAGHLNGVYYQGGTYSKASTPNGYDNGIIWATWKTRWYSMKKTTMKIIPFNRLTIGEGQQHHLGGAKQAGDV
# Experimental: (§1) Acta 133, 376-379 (1979).
# (§2) The purification of NDSK involves incubation of fibrinogen in cyanogen bromide in the presence of 70% formic acid. This treatment may alter the binding sites. Therefore, an attempt was made to reproduce the data using fibrin monomer instead of thrombin-treated NDSK. A major difficulty, the self-polymerization of fibrin monomer, was overcome by using high molar ratios of D1 Peptide to fibrin monomer. However, in this situation the concentration of D1 Peptide could be varied only over a small range of concentrations. D1 Peptide was added to the Sephadex gel equilibrium system and incubated for 10 min., then soluble fibrin monomer was added in a molar excess of D1 Peptide to fibrin monomer of 100-1000 fold. Under these conditions the lag time in the fibrin monomer polymerization was more than 30 min.
# (§3) In experiments using thrombin fibrin monomer the number of binding sites for D1 Peptide was 1.82±0.26 (15 experiments, mean and standard deviation). For batroxobin fibrin monomer the number of binding sites was 1.91±0.24 (17 experiments, mean and standard deviation).
# thrombin fibrin monomer [2] = target: T1, thrombin fibrin monomer; test: Inhibition of fibrin monomer polymerization (absorbance at 350 nm), thrombin fibrin monomer; type: biochemical; details: molar excess of D1 Peptide to fibrin monomer of 100-1000 fold; Sephadex gel equilibrium system; kind of fibrin monomer not stated
# Experimental: Fibrin monomer was prepared according to the method of Belitser et al, Biochem. Biophys. Acta 154, 367-375 (1968) using either thrombin or batroxobin (an enzyme from the venom of Bothrops atrox). The polymerization of fibrin monomer which was formed by batroxobin (lacking fibrinopeptide A) or by thrombin (lacking fibrinopeptides A and B) was inhibited by D1 Peptide. Polymerization was measured spectrophotometrically at 350 nm as has been described in Budzynski, Biochem. Biophys. Acta 584, 284-287 (1979). […] At zero time the recorder was started and 0.01 ml of fibrin monomer (1.5 mg/ml in 0.02M acetic acid) was added, the cells were inverted, and the increase in absorbance at 350 nm was measured continuously for 15 min or until plateau levels were reached. For batroxobin fibrin monomer 0.15 ml of buffer or buffer containing D1 Peptide was mixed with 0.05 ml of batroxobin fibrin monomer (1.5 mg/ml in 0.02M acetic acid). The initial rate of polymerization was calculated from the slope of the steepest part of the curve and expressed as the increase in absorbance per min (A350 ·min^-1).
# [3] = target: T2, batroxobin fibrin monomer (Homo sapiens, UniProt P02671+P02675+P02679); test: Sephadex gel equilibrium binding, batroxobin fibrin monomer; details: 17 experiments, mean and standard deviation
# T2 construct: fibrin monomer which was formed by batroxobin (lacking fibrinopeptide A); made in house; host or cells: not recombinant: made from fibrinogen by treatment with batroxobin (Bothrops atrox venom enzyme)
# T2 sequence (P02671 36-629 isoform P02671-2): T1 sequence (P02671 36-629 isoform P02671-2)
# T2 sequence (P02675 31-491): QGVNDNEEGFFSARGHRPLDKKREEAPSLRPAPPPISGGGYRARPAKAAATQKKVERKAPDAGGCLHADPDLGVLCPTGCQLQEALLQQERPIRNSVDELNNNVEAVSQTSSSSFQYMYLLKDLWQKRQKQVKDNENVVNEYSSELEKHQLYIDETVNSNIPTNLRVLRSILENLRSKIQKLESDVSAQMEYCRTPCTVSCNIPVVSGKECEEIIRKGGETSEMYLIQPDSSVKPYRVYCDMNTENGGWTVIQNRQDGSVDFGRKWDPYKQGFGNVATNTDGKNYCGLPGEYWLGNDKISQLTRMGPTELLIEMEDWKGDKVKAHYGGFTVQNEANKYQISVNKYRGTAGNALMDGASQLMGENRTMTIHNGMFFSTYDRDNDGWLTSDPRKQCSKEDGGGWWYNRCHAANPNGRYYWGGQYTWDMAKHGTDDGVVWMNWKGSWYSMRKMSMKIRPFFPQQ
# T2 sequence (P02679 27-437 isoform P02679-2): T1 sequence (P02679 27-437 isoform P02679-2)
# Experimental: as §1, §2, §3
structure (smiles),measurement,setting,value
CC[C@H](C)[C@H](NC(=O)[C@H](CCCCN)NC(=O)[C@H](CCSC)NC(=O)[C@@H](NC(=O)[C@@H](NC(=O)[C@H](CCCCN)NC(=O)[C@H](CCCCN)NC(=O)[C@H](CCSC)NC(=O)[C@H](CO)NC(=O)[C@H](Cc1ccc(O)cc1)NC(=O)[C@H](Cc1c[nH]c2ccccc12)NC(=O)[C@H](CCCNC(=N)N)NC(=O)[C@@H](N)[C@@H](C)O)[C@@H](C)O)[C@@H](C)O)C(=O)N[C@H](C(=O)N1CCC[C@H]1C(=O)N[C@@H](Cc1ccccc1)C(=O)N[C@@H](CC(N)=O)C(=O)N[C@@H](CCCNC(=N)N)C(=O)N[C@@H](CC(C)C)C(=O)N[C@H](C(=O)N[C@H](C(=O)NCC(=O)N[C@@H](CCC(=O)O)C(=O)NCC(=O)N[C@@H](CCC(N)=O)C(=O)N[C@@H](CCC(N)=O)C(=O)N[C@@H](Cc1c[nH]cn1)C(=O)N[C@@H](Cc1c[nH]cn1)C(=O)N[C@@H](CC(C)C)C(=O)NCC(=O)NCC(=O)N[C@@H](C)C(=O)N[C@@H](CCCCN)C(=O)N[C@@H](CCC(N)=O)C(=O)N[C@@H](C)C(=O)NCC(=O)N[C@@H](CC(=O)O)C(=O)N[C@H](C(=O)O)C(C)C)[C@@H](C)CC)[C@@H](C)O)[C@@H](C)CC [D1 Peptide] (H-TRWYSMKKTTMKIIPFNRLTIGEGQQHHLGGAKQAGDV-OH),number of binding sites for D1 Peptide,thrombin fibrin monomer [1],1.82±0.26
same,lag time in the fibrin monomer polymerization,thrombin fibrin monomer [2],more than 30 min
same,number of binding sites for D1 Peptide,[3],1.91±0.24
